In patent US5529989A (Arizona Board of Regents acting on behalf of Arizona State …, priority 1995, dated 1996):
≈ marks a conversion by molar mass, not a printed value. Entries after “also recorded” stand apart in the source; their conditions may differ.

Legend:
[1] = stability of the phosphoric acid; format: physicochemical; conditions: isolated after hydrogenolysis
cancer cell = cancer cell growth inhibitory comparison of pancratistatin with its phosphate prodrug; format: cell-based; conditions: versus pancratistatin (1)
Method: (§1) There is no mathematical difference between ED50 and GI50, which are both calculated using the same formula. The only difference is historical usage.
(§2) Each drug is tested at five (5) doses: 100--10--1--0.1--0.01 μg/ml. Percent Growths are calculated for each dose. […] The log of the dose is used during the regression computation.
(§3) At the start of an experiment, cells from the in vitro cell cultures are inoculated into the appropriate tubes or microtiter plates. One set of control tubes/plates is immediately counted to determine the number of cells at the start of the experiment. This is the "baseline count" or "Tzero reading". At the end of the experiment (48 hours later) a second set of control tubes/plates is analyzed to determine the "Control Growth" value. The growth (or death) of cells relative to the initial quantity of cells is used to define the "Percent of Growth".

[2] = tested on: murine P388 lymphocytic leukemia cell line; test: growth inhibition of murine P388 lymphocytic leukemia cell line in vitro; format: cell-based
Method: as §1, §2, §3

water solubility = format: physicochemical
[3] = tested on: U.S. National Cancer Institute's (NCI) panel of sixty human cancer cell lines; test: cancer cell growth inhibition, NCI panel of sixty human cancer cell lines; format: cell-based
Method: as §1
Total Growth Inhibition ("TGI"), is the drug dose needed to yield zero percent growth, i.e., just as many cells at the end of the experiment as were present in the beginning. Whether just as many cells were killed as were produced (steady state), or no growth occurred (total inhibition), cannot be distinguished.
as §2, §3

[4] = tested on: murine P388 lymphocytic leukemia; conditions: 0.75-12.5 mg/kg host body weight, from U.S. Pat. No. 4,985,436; cited from earlier work
[5] = cited from earlier work
[6] = tested on: murine P388 lymphocytic leukemia cell line; conditions: from U.S. Pat. No. 4,985,436, cited from earlier work
[7] = tested on: M5074 murine ovary sarcoma; conditions: 0.38 to 3.0 mg active reagent/kg host body weight; from U.S. Pat. No. 4,985,436; cited from earlier work
[8] = tested on: M5074 murine ovary sarcoma; conditions: 6 mg/kg host body weight; from U.S. Pat. No. 4,985,436; cited from earlier work
RNA viruses = conditions: cited from earlier work
[9] = tested on: experimental melanoma and ovary carcinoma; conditions: cited from earlier work

Compound	stability [1]	cancer cell growth inhibition compared with pancratistatin (1) (cancer cell)	GI50 ([2]; Mus musculus, 48 h, murine P388 lymphocytic leukemia cell line, dose needed to reduce the percent growth to 50%, read-out: ED50 (the source's name))	ED50 compared with pancratistatin (1) ([2]; murine P388 lymphocytic leukemia, versus pancratistatin (1))	solubility (water solubility)	direct comparison of phosphate (5) and pancratistatin (1) [3]	life extension [4]	solubility in water (in words) [5]	ED50 ([6]; P388 in vitro cell line, 2880 min)	inhibition of growth of P388 in vitro cell line (in words) [6]	life extension [7]	cure rate [8]	activity against a range of RNA viruses (RNA viruses)	activity against experimental melanoma and ovary carcinoma [9]
CC(=O)O[C@@H]1[C@@H](OC(C)=O)[C@H](OC(C)=O)[C@@H]2c3cc4c(c(OP(=O)(O)O)c3C(=O)N[C@H]2[C@@H]1OC(C)=O)OCO4 [4b, 7-phosphoryl-pancratistatin tetraacetate]	unstable	–	–	–	–	–	–	–	–	–	–	–	–	–
O=C1N[C@H]2[C@H](O)[C@H](O)[C@@H](O)[C@H](O)[C@@H]2c2cc3c(c(OP(=O)(O)O)c21)OCO3 [compound (5), Disodium 7-Phosphoryl-Pancratistatin]	–	same cancer cell growth inhibition as pancratistatin (1); also recorded: very comparable results	0.032 µg/mL	essentially comparable to that found for pancratistatin (1)	> 230 mg/mL	comparable results for both compounds	–	–	–	–	–	–	–	–
O=C1N[C@H]2[C@H](O)[C@H](O)[C@@H](O)[C@H](O)[C@@H]2c2cc3c(c(O)c21)OCO3 [pancratistatin]	–	–	–	–	–	comparable results for both compounds	38-106%	at best sparingly soluble in water	0.001 µg/mL (≈ 3.07 nM)	markedly inhibited growth	53% to 84	50%	activity against a range of RNA viruses	potent activity
